Data on five compounds can be found in patent US6511959B1, “Use of calcium-activated neutral protease (CANP) inhibitors in pharmaceutical preparations” (Norsk Hydro AS, priority 1991, dated 2003).

Square brackets hold non-standard residues; d marks the D form. Peptide text beside a SMILES is read from it. Nle = CCCC[C@H](N)C(=O)O

For data set [1], the system named is human NHIK 3025 cervix carcinoma cells. As to the kind of experiment: Cell survival (colony formation) of cervix carcinoma cells. It is filed as cell-based. Particulars: 24 hours treatment, colonies scored after 12 to 14 days. From the text:
Human cells of the established line […], originating from a cervical carcinoma in situ (Nordbye, K. and Oftebro, R., 1969, Exp. Cell Res., 58:458 and Oftebro, R. and Nordbye, K., 1969, Exp. Cell Res., 58:459) were cultivated in medium Eagles minimum essential medium (MEM) supplemented with 10% fetal bovine serum and antibiotics. Cells were routinely grown as monolayers in tissue culture flasks. The cells were kept in continuous exponential growth by frequent reculturing every second or third day. During reculturing, as well as during experiments, the cells were kept in humidified CO2 incubators at 37° C.
In the experiments represented in this example, the proteinaceous CANP inhibitor was additionally purified by gel filtration chromatography.
Cell survival studies were performed by adding inhibitors to exponentially growing, asynchronous cells 2 hours after seeding the cells into plastic Petri dishes at known cell densities. The inhibitor treatment period was 24 hours after which the dishes were rinsed with warm (37° C.) Hanks' balanced salt solution and fresh medium without inhibitor, was added. After 12 to 14 days of incubation (with a medium shift on day 7) colonies of cells were fixed in ethanol and stained with methylene blue. Only colonies containing more than 40 cells were scored as survivors. The percent cell survival is calculated relative to untreated, control dishes.

The test system of data set [2] is P-cells. Description: Cytological changes of cell cultures in continuous presence of the inhibitors. It counts as cell-based, human. Particulars: continuous presence 72 and 120 h, 2 mg/ml trypsin-chymotrypsin inhibitor, 1 mg/ml aprotinin, leupeptin or E64. As for the experimental part:
(§1) a) Cytological Changes of Cell Cultures in Continuous Presence of the Inhibitors
(§2) The following samples were made up in RPMI-1640 complete medium:
(§3) 2. 2 mg/ml trypsin-chymotrypsin inhibitor
(§4) 6. all five inhibitors at the above mentioned concentrations
(§5) 7. RPMI-1640 medium with no inhibitor addition to serve as a control medium.
(§6) Ten glass Petri dishes (5 cm diameter) were seeded each with 1×10^6 M-cells and another ten dishes were seeded each with 1×10^6 P-cells. Duplicate cell cultures received each type of complete medium containing the inhibitors and control cultures received only complete medium. The cell cultures were incubated at 37° C. in a humidified CO2-incubator for 120 hours. The culture medium was changed with fresh medium containing the same inhibitors at 24 and 72 hours after start of the experiment. Half of the cell cultures were fixed in 50% ethanol 72 hours and the other half 120 hours after initiation of the experiment. All cell cultures were stained according to the Papanicolaou method.

Data set [3] relates to M-cells. The description is as above. It is filed as cell-based, human. Particulars: continuous presence 72 and 120 h, 2 mg/ml trypsin-chymotrypsin inhibitor, 1 mg/ml aprotinin, leupeptin or E64. The protocol:
as §1, §2, §3, §4, §5, §6

Data set [4] deals with Walker rat tumors. As to the kind of experiment: Calpain inhibitor I and II on growth of Walker rat tumors in vivo. The arrangement: species or system Wistar rats. Particulars: liposomal, 27 mg/100 g rat daily i.p. The protocol: Male Wistar rats were injected with 10×10^6 Walker tumor cells per rat at the inguinal region. Treatment was started when measurable tumors appeared. Each treatment group consisted of 5 rats. […] Rats were treated with 2 ml liposomal solution of inhibitors at a concentration of 13.5 mg/ml, equivalent to 27 mg/100 g rat, daily by intraperitoneal injection. Rats in the control group received daily injections of saline-filled liposomes. Tumor volume was determined by measuring two diameters with calipers. The data is presented in FIG. 3 in which each data point represents the mean±S.E. tumor volume measurements for 5 rats.

`CC(C)C[C@H](NC(=O)[C@H]1O[C@@H]1C(=O)O)C(=O)NCCCCN=C(N)N` (relative stereo) [E64, L-trans-3-carboxy-oxiran-2-carbonyl-L-leucylagmatine]: the “cytotoxic effect (cell survival, FIG. 1)” value in data set [1] is reported as “little cytotoxic effect”. Further, the “effect on growth or cytology compared to control cell cultures” value in data set [2] and in data set [3] was “did not affect the growth or cytology” each time.

As to `CCCC[C@@H](C=O)NC(=O)[C@H](CC(C)C)NC(=O)[C@H](CC(C)C)NC(C)=O` [calpain inhibitor I, N-Acetyl-Leu-Leu-Norleucinal] (Ac-Leu-Leu-[Nle]-aldehyde), the tumor regression entry in data set [4] (5 doses) is listed as “approximately 92%”.

Take `CSCC[C@@H](C=O)NC(=O)[C@H](CC(C)C)NC(=O)[C@H](CC(C)C)NC(C)=O` [calpain inhibitor II, N-Acetyl-Leu-Leu-Methioninal] (Ac-Leu-Leu-Met-aldehyde): the “cytotoxic effect (cell survival, FIG. 1)” value in data set [1] was “slightly greater cytotoxicity than aprotinin”. For the same compound, in data set [4], the “anticancer effect (tumor volume, FIG. 3)” value is listed as “anticancer effect from the fourth dose”.

Take `CC(=O)N[C@@H](CC(C)C)C(=O)N[C@@H](CC(C)C)C(=O)N[C@H](C=O)CCCNC(=N)N` [leupeptin, N-acetyl-L-leucyl-L-leucyl-L-arginal]: in data set [1], the “cytotoxic effect (cell survival, FIG. 1)” value is on record as “little cytotoxic effect”. The “effect on growth or cytology compared to control cell cultures” value in data set [2] and in data set [3] was “did not affect the growth or cytology” in each case.

For aprotinin, the “effect on growth or cytology compared to control cell cultures” value in data set [2] and in data set [3] was “did not affect the growth or cytology” in each case.
